pIC50: −log10 of the molar value.
How the values were obtained:
[1] = biological target: T1, human CD38 (Homo sapiens, UniProt P28907); assay: human recombinant CD38 enzyme assay (hydrolysis of NAD+); format: biochemical; details: human recombinant CD38, 0.4 nM enzyme, 62.5 μM NAD+; read-out: hCD38 BioChem IC50
T1 sequence (P28907 1-300): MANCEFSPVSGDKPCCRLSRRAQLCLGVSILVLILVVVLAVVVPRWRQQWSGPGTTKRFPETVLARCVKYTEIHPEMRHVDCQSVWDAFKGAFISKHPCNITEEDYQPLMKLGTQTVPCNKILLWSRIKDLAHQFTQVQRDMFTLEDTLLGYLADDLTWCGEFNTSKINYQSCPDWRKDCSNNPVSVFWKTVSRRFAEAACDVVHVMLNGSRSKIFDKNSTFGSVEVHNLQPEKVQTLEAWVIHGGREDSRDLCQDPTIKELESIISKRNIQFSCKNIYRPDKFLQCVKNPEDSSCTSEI
Procedure, shortened: (§1)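 Inhibitors were titrated against purified CD38 hydrolysing NAD+ for 60 min at ambient temperature. Unconsumed substrate was quantified enzymatically via NADH-coupled resazurin reduction and fluorescence.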

[2] = biological target: T2, mouse CD38 (Mus musculus, UniProt P56528); assay: mouse recombinant CD38 enzyme assay (hydrolysis of NAD+); format: biochemical; details: read-out: mCD38 BioChem IC50
T2 sequence (P56528 1-304): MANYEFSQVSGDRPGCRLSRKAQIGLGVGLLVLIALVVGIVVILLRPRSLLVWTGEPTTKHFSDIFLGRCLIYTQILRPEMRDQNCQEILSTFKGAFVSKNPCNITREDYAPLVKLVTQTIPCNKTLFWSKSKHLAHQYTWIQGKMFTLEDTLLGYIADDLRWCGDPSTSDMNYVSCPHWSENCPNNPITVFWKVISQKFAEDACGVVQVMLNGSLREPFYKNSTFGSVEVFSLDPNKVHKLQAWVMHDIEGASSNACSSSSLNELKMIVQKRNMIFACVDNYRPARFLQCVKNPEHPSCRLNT
Procedure, shortened: as §1

[3] = biological target: T3, endogenous CD38 in HL60 cells (Homo sapiens, UniProt P28907); assay: cellular CD38 assay in HL60 cells (cellular NAD levels); format: cell-based; details: all-trans retinoic acid, 24 hours, read-out: hCD38 HL60 ATRA NAD Cell Diaphorase IC50
T3 construct: endogenous in cells; host or cells: HL60 (leukemic cells, treated with all-trans retinoic acid)
T3 sequence (P28907 1-300): T1 sequence (P28907 1-300)
Procedure, shortened: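 HL60 cells (20000/well) were treated with compound in DMSO for 24 h. Cellular NAD was then measured by an enzymatic cycling mix (alcohol dehydrogenase, diaphorase, 40 uM resazurin, 10 uM FMN, 3% ethanol, Triton X-100, pH 8.4).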

Question: With CO[C@H]1CC[C@H](NC(=O)c2cc(C(F)(F)F)nc(-c3cncn3C)n2)CC1 [Compound 151, N-((1r,4r)-4-methoxycyclohexyl)-2-(1-methyl-1H-imidazol-5-yl)-6-(trifluoromethyl)pyrimidine-4-carboxamide] as the compound, how does the pIC50 [1] read?
Answer: 7.85

Question: And the pIC50 [2]?
Answer: 9.00

Question: And the pIC50 [3]?
Answer: 5.71

Question: How did the pIC50 [1] turn out when Cc1ccc(-n2ccnc2)nc1C(=O)N[C@H]1CC[C@H](C(F)F)CC1 [Compound 101, N-(4-(difluoromethyl)cyclohexyl)-6-(1H-imidazol-1-yl)-3-methylpicolinamide] was run?
Answer: 6.68

Question: And the pIC50 [2]?
Answer: 7.38

Question: And the pIC50 [3]?
Answer: 5.08

Question: With Cn1cncc1-c1nc(C(=O)Nc2ccc(C(F)F)nc2)cc(C(C)(C)O)n1 [Compound 159, N-(6-(difluoromethyl)pyridin-3-yl)-6-(2-hydroxypropan-2-yl)-2-(1-methyl-1H-imidazol-5-yl)pyrimidine-4-carboxamide] as the compound, how does the pIC50 [1] read?
Answer: 8.05

Question: What about the pIC50 [2] of the same compound?
Answer: 8.30

Question: And the pIC50 [3]?
Answer: 5.96

Question: Cn1cncc1-c1nccc(C(=O)N[C@H]2CC[C@H](C(F)F)CC2)n1 [Compound 70, N-((1r,4r)-4-(difluoromethyl)cyclohexyl)-2-(1-methyl-1H-imidazol-5-yl)pyrimidine-4-carboxamide] was tested. Which pIC50 [1] did it give?
Answer: 8.30

Question: And the pIC50 [2]?
Answer: 9.00

Question: What about the pIC50 [3] of the same compound?
Answer: 6.11

Question: Which results are given for COc1cc(C(=O)N[C@H]2CC[C@H](OC)CC2)nc(-c2cncs2)n1 [Compound 130, 6-methoxy-N-((1r,4r)-4-methoxycyclohexyl)-2-(thiazol-5-yl)pyrimidine-4-carboxamide]?
Answer: pIC50 [1]: 6.31; pIC50 [2]: 7.36; pIC50 [3]: 4.99

Question: Which results are given for CO[C@H]1C[C@H](NC(=O)c2cccc(-n3ccnc3)n2)C1 [Compound 23, 6-(1H-imidazol-1-yl)-N-(3-methoxycyclobutyl)picolinamide]?
Answer: pIC50 [1]: 6.21; pIC50 [2]: 6.96; pIC50 [3]: 5.41

Question: What does the source list for COCCO[C@H]1CC[C@H](NC(=O)c2cc(C(F)(F)F)nc(-c3cncn3C)n2)CC1 [Compound 165, N-((1r,4r)-4-(2-methoxyethoxy)cyclohexyl)-2-(1-methyl-1H-imidazol-5-yl)-6-(trifluoromethyl)pyrimidine-4-carboxamide]?
Answer: pIC50 [1]: 7.72; pIC50 [2]: 9.00; pIC50 [3]: 5.53

Question: With O=C(N[C@H]1CC[C@H](O)CC1)c1cc(C(F)(F)F)cc(-n2ccnc2)n1 [Compound 62, N-(4-hydroxycyclohexyl)-6-(1H-imidazol-1-yl)-4-(trifluoromethyl)picolinamide] as the compound, how does the pIC50 [1] read?
Answer: 7.21

Question: And the pIC50 [2]?
Answer: 7.92

Question: What about the pIC50 [3] of the same compound?
Answer: 5.17

Question: With O=C(NC12CC(C1)C2)c1cccc(-n2ccnc2)n1 [Compound 16, N-(bicyclo[1.1.1]pentan-1-yl)-6-(1H-imidazol-1-yl)picolinamide] as the compound, how does the pIC50 [1] read?
Answer: 5.82

Question: And the pIC50 [2]?
Answer: 6.12

Question: And the pIC50 [3]?
Answer: 5.13

Question: CO[C@@H]1CC[C@@H](NC(=O)c2cccc(-n3ccnc3)n2)C1 [Compound 57, 6-(1H-imidazol-1-yl)-N-(3-methoxycyclopentyl)picolinamide] was tested. Which pIC50 [1] did it give?
Answer: 6.73

Question: What about the pIC50 [2] of the same compound?
Answer: 7.44

Question: And the pIC50 [3]?
Answer: 5.34

Question: COCCO[C@H]1CC[C@H](NC(=O)c2ccc(F)c(-n3ccnc3)n2)CC1 [Compound 54, 5-fluoro-6-(1H-imidazol-1-yl)-N-(4-(2-methoxyethoxy)cyclohexyl)picolinamide] was tested. Which pIC50 [1] did it give?
Answer: 6.72

Question: And the pIC50 [2]?
Answer: 7.42

Question: What about the pIC50 [3] of the same compound?
Answer: 5.08

Question: Cn1cncc1-c1cc(C(C)(C)C)nc(C(=O)Nc2ccc(C(F)F)nc2)n1 [Compound 189, 4-(tert-butyl)-N-(6-(difluoromethyl)pyridin-3-yl)-6-(1-methyl-1H-imidazol-5-yl)pyrimidine-2-carboxamide] was tested. Which pIC50 [1] did it give?
Answer: 6.48

Question: And the pIC50 [2]?
Answer: 6.58

Question: What about the pIC50 [3] of the same compound?
Answer: 5.07

Question: Cn1cncc1-c1nccc(C(=O)N[C@H]2CC[C@H](C(F)(F)F)CC2)n1 [Compound 83, 2-(1-methyl-1H-imidazol-5-yl)-N-((1r,4r)-4-(trifluoromethyl)cyclohexyl)pyrimidine-4-carboxamide] was tested. Which pIC50 [1] did it give?
Answer: 7.96

Question: And the pIC50 [2]?
Answer: 8.22

Question: And the pIC50 [3]?
Answer: 5.56

Question: What does the source list for Cn1cncc1-c1nc(C(=O)N[C@H]2CC[C@H](OC(F)F)CC2)cc(C2CCOCC2)n1 [Compound 281, N-((1r,4r)-4-(difluoromethoxy)cyclohexyl)-2-(1-methyl-1H-imidazol-5-yl)-6-(tetrahydro-2H-pyran-4-yl)pyrimidine-4-carboxamide]?
Answer: pIC50 [1]: 8.39; pIC50 [2]: 8.89; pIC50 [3]: 5.88

Question: What does the source list for CO[C@H]1CC[C@H](NC(=O)c2cncc(-c3cncn3C)n2)CC1 [Compound 91, N-((1r,4r)-4-methoxycyclohexyl)-6-(1-methyl-1H-imidazol-5-yl)pyrazine-2-carboxamide]?
Answer: pIC50 [1]: 7.42; pIC50 [2]: 7.72; pIC50 [3]: 5.68

Question: How did the pIC50 [1] turn out when O=C(N[C@H]1CC[C@@H](O)CC1)c1cccc(-n2ccnc2)n1 [Compound 31, N-(4-hydroxycyclohexyl)-6-(1H-imidazol-1-yl)picolinamide] was run?
Answer: 6.32

Question: What about the pIC50 [2] of the same compound?
Answer: 6.69

Question: What about the pIC50 [3] of the same compound?
Answer: 4.80

Question: What does the source list for O=C(Nc1ccc(C(F)F)nc1)c1nc(C2CC2)cc(-n2ccnc2)n1 [Compound 205, 4-cyclopropyl-N-(6-(difluoromethyl)pyridin-3-yl)-6-(1H-imidazol-1-yl)pyrimidine-2-carboxamide]?
Answer: pIC50 [1]: 8.40; pIC50 [2]: 8.80; pIC50 [3]: 6.39

— patent publication US20230116972A1, “CD38 MODULATORS AND METHODS OF USE THEREOF” (Cytokinetics, Inc., priority 2021, published 2023)
